# Data reported in patent US10568876B2, “Tetrahydroisoquinoline derivatives useful as inhibitors of diacylglyceride O-acyltransferase 2” (Merck Sharp & Dohme Corp., priority 2014, dated 2020).
# Target: hDGAT2 (Homo sapiens (Human), UniProt Q96PD7)
# Assay: DGAT2 Enzymatic Activity Assay
# Type: biochemical
# Settings: hDGAT2 Sf-9 membrane prep; 25 μM diolein, 10 μM oleoyl-CoA; triolein product by LC/MS/MS; read-out: IC50 values for inhibition of DGAT2
# Procedure: Sf-9 insect cells were maintained in Grace's insect cell culture medium with 10% heated-inactivated fetal bovine serum, 1% Pluronic F-68 and 0.14 μg/ml Kanamycine sulfate in Erlenmeyer flasks at 28° C. in a shaker incubator. After infection with untagged hDGAT2 baculovirus at multiplicity of infection (MOI) 0.1 for 48 hours, cells were harvested. Cell pellets were suspended in buffer containing 10 mM Tris-HCl (pH 7.5), 1 mM EDTA (pH 8.0), 250 mM sucrose and Complete Protease Inhibitor Cocktail (Roche Diagnostics Corp., Indianapolis, Ill.), and sonicated on ice. Membrane fractions were isolated by ultracentrifugation (100,000×g pellet), resuspended in the same buffer, and frozen (−80° C.) for later use. The protein concentration was determined with the BCA Protein Assay kit (Pierce Biotechnology Inc., Rockford, Ill.). Expression of protein levels was analyzed by immunoblotting with goat polyclonal DGAT2 antibody C-15 and donkey anti-goat IgG HRP (Santa Cruz Biotechnology, Inc., Santa Cruz, Calif.) followed by detection with ECL reagent (GE Healthcare, Piscataway, N.J.).
# LC/MS/MS analyses were performed using Thermal Fisher's LX4-TSQ Vantage system. This system consists of an Agilent binary high-performance liquid chromatography (HPLC) pumps and a TSQ Vantage triple quadrupole MS/MS instrument. For each sample, 2 μL, samples from the top organic layer of in-plate liquid-liquid extraction were injected onto a Thermo Betabasic C4 column (2.1 mm×20 mm, 5 μm particle size). The samples were then eluted using the following conditions; mobile phase: methanol/water with 0.1% ammonium format=92/8 (v/v), flow rate: 1 mL/min, temperature: 25 C. Data was acquired in positive mode using a heated electrospray ionization (HESI) interface. The operational parameters for the TSQ Vantage MS/MS instrument were a spray voltage of 3000 V, capillary temperature of 280° C., vaporizer temperature 400° C., shealth gas 60 arbitrary unit, Aux gas 40 arbitrary units, S-lens 113 and collision gas 0.16 Pascals. […] (SRM) chromatograms of triolein (Q1: 902.9>Q3: 602.3) and internal standard (Q1: 902.9>Q3: 602.3) were collected for 40 sec. The peak area was integrated by Xcalibur Quan software. The ratio between the triolein generated in the reaction and spiked in internal standard were used to generate percentage inhibition and IC50 values. Compound percentage inhibition was calculated by the following formula: Inhibition %=1-[(compound response low control)/(high control low control)]×100%. Potent compounds were titrated and IC50 were calculated by 4 parameter sigmoidal curve fitting formula.
# DGAT2 activity was determined by measuring the amount of enzymatic product triolein (1,2,3-Tri(cis-9-octadecenoyl)glycerol) using the membrane prep mentioned above. The assay was carried out in deep well 384 plates in a final volume of 40 μL at room temperature. The assay mixture contained the following: assay buffer (100 mM Tris.Cl, pH 7.0, 20 mM MgCl2, 5% ethanol), 25 μM of diolein, 10 μM of oleoyl-CoA and 10 ng/μL of DGAT2 membrane.
# Sequence of hDGAT2 (Q96PD7 whole entry): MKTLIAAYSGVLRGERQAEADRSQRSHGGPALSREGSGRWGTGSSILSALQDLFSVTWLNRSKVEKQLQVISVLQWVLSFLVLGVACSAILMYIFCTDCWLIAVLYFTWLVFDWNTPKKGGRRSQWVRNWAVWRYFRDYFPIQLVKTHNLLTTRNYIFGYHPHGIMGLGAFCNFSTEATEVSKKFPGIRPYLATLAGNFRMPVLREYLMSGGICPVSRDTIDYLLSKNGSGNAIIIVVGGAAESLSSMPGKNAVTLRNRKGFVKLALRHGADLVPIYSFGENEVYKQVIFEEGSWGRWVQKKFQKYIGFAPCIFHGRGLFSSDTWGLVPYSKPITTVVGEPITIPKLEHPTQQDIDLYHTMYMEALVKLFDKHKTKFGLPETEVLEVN
row,SMILES,IC50 [µM]
1,"Cc1noc([C@@H]2C[C@H]2C(=O)NCc2ccc(-c3cccc(OC(F)(F)F)c3)c3c2CN(C(=O)Nc2ccon2)CC3)n1 (relative stereo) [Example 2, N-(isoxazol-3-yl)-8-(((trans)-2-(3-methyl-1,2,4-oxadiazol-5-yl)cyclopropanecarboxamido)methyl)-5-(3-(trifluoromethoxy)phenyl)-3,4-dihydroisoquinoline-2(1H)-carboxamide]",0.112
2,"CC(C)(C)NC(=O)N1CCc2c(-c3cccc(-n4ccnn4)c3)ccc(CNC(=O)[C@@H]3C[C@H]3c3ccccc3)c2C1 (relative stereo) [Example 5, 5-(3-(1H-1,2,3-triazol-1-yl)phenyl)-N-(tert-butyl)-8-(((trans)-2-phenylcyclopropanecarboxamido)methyl)-3,4-dihydroisoquinoline-2(1H)-carboxamide]",0.0114
3,"Cc1noc([C@@H]2C[C@H]2C(=O)NCc2ccc(-c3cccc(C(F)(F)F)c3)c3c2CN(C(=O)Nc2cccnc2)CC3)n1 (relative stereo) [Example 6, 8-(((trans)-2-(3-methyl-1,2,4-oxadiazol-5-yl)cyclopropanecarboxamido)methyl)-N-(pyridin-3-yl)-5-(3-(trifluoromethyl)phenyl)-3,4-dihydroisoquinoline-2(1H)-carboxamide]",0.101
4,"Cc1cncc(-c2ccc(CNC(=O)[C@@H]3C[C@H]3c3ccccc3)c3c2CCN(C(=O)NC(C)(C)C)C3)c1 (relative stereo) [Example 8, N-(tert-butyl)-5-(5-methylpyridin-3-yl)-8-(((trans)-2-phenylcyclopropanecarboxamido)methyl)-3,4-dihydroisoquinoline-2(1H)-carboxamide]",0.0823
5,"CC(C)(C)NC(=O)N1CCc2c(-c3cccc(OC(F)(F)F)c3)ccc(CNC(=O)[C@H]3C[C@@H]3c3ccccc3)c2C1 (relative stereo) [Example 9, N-(tert-butyl)-8-(((trans)-2-phenylcyclopropanecarboxamido)methyl)-5-(3-(trifluoromethoxy)phenyl)-3,4-dihydroisoquinoline-2(1H)-carboxamide]",0.031
6,"CC(C)(C)NC(=O)N1CCc2c(-c3cncc(C(C)(C)O)c3)ccc(CNC(=O)[C@@H]3C[C@H]3c3ccccc3)c2C1 (relative stereo) [Example 10, N-(tert-butyl)-5-(5-(2-hydroxypropan-2-yl)pyridin-3-yl)-8-(((trans)-2-phenylcyclopropanecarboxamido)methyl)-3,4-dihydroisoquinoline-2(1H)-carboxamide]",0.166
7,"COc1cccc(-c2ccc(CNC(=O)[C@@H]3C[C@H]3c3nc(C)no3)c3c2CCN(C(=O)NC(C)(C)C)C3)c1 (relative stereo) [Example 11, N-(tert-butyl)-5-(3-methoxyphenyl)-8-(((trans)-2-(3-methyl-1,2,4-oxadiazol-5-yl)cyclopropanecarboxamido)methyl)-3,4-dihydroisoquinoline-2(1H)-carboxamide]",0.003
8,"Cc1noc([C@@H]2C[C@H]2C(=O)NCc2ccc(-c3cccc(OC(F)(F)F)c3)c3c2CN(C(=O)NC(C)(C)C)CC3)n1 (relative stereo) [Example 12, N-(tert-butyl)-8-(((trans)-2-(3-methyl-1,2,4-oxadiazol-5-yl)cyclopropanecarboxamido)methyl)-5-(3-(trifluoromethoxy)phenyl)-3,4-dihydroisoquinoline-2(1H)-carboxamide]",0.0036
9,"CC(C)(C)NC(=O)N1CCc2c(-c3cccc(C(F)(F)F)c3)ccc(CNC(=O)[C@@H]3C[C@H]3c3ccccc3)c2C1 (relative stereo) [Example 14, N-(tert-butyl)-8-(((trans)-2-phenylcyclopropanecarboxamido)methyl)-5-(3-(trifluoromethyl)phenyl)-3,4-dihydroisoquinoline-2(1H)-carboxamide]",0.034
10,"COc1cccc(-c2ccc(CNC(=O)[C@@H]3C[C@H]3c3ccccc3)c3c2CCN(C(=O)Nc2ccccn2)C3)c1 (relative stereo) [Example 15, 5-(3-methoxyphenyl)-8-(((trans)-2-phenylcyclopropanecarboxamido)methyl)-N-(pyridin-2-yl)-3,4-dihydroisoquinoline-2(1H)-carboxamide]",3.11
11,"COc1cccc(-c2ccc(CNC(=O)[C@@H]3C[C@H]3c3ccccc3)c3c2CCN(C(=O)Nc2ccncc2)C3)c1 (relative stereo) [Example 18, 5-(3-methoxyphenyl)-8-(((trans)-2-phenylcyclopropanecarboxamido)methyl)-N-(pyridin-4-yl)-3,4-dihydroisoquinoline-2(1H)-carboxamide]",2.1
12,"COc1cccc(-c2ccc(CNC(=O)[C@H]3C[C@@H]3c3cccnc3)c3c2CCN(C(=O)NC(C)(C)C)C3)c1 (relative stereo) [Example 19, N-(tert-butyl)-5-(3-methoxyphenyl)-8-(((trans)-2-(pyridin-3-yl)cyclopropanecarboxamido)methyl)-3,4-dihydroisoquinoline-2(1H)-carboxamide]",0.0085
13,"COc1cccc(-c2ccc(CNC(=O)[C@@H]3C[C@H]3c3ccccc3)c3c2CCN(C(=O)Nc2cc(C)no2)C3)c1 (relative stereo) [Example 20, 5-(3-methoxyphenyl)-N-(3-methylisoxazol-5-yl)-8-(((trans)-2-phenylcyclopropanecarboxamido)methyl)-3,4-dihydroisoquinoline-2(1H)-carboxamide]",1.64
14,"CC(C)(C)NC(=O)N1CCc2c(-c3cccc(C#N)c3)ccc(CNC(=O)[C@@H]3C[C@H]3c3ccccc3)c2C1 (relative stereo) [Example 22, N-(tert-butyl)-5-(3-cyanophenyl)-8-(((trans)-2-phenylcyclopropanecarboxamido)methyl)-3,4-dihydroisoquinoline-2(1H)-carboxamide]",0.0161

# The next lines start with the values.
row,IC50 [µM],SMILES
1,0.302,"COc1cccc(-c2ccc(CNC(=O)[C@@H]3C[C@H]3c3ccccc3)c3c2CCN(C(=O)Nc2ccon2)C3)c1 (relative stereo) [Example 23, N-(isoxazol-3-yl)-5-(3-methoxyphenyl)-8-(((trans)-2-phenylcyclopropanecarboxamido)methyl)-3,4-dihydroisoquinoline-2(1H)-carboxamide]"
2,0.238,"COc1cccc(-c2ccc(CNC(=O)[C@@H]3C[C@H]3c3ccccc3)c3c2CCN(C(=O)Nc2cccnc2)C3)c1 (relative stereo) [Example 24, 5-(3-methoxyphenyl)-8-(((trans)-2-phenylcyclopropanecarboxamido)methyl)-N-(pyridin-3-yl)-3,4-dihydroisoquinoline-2(1H)-carboxamide]"
3,0.144,"COc1cccc(-c2ccc(CNC(=O)[C@@H]3C[C@H]3c3nc(C)no3)c3c2CCN(C(=O)Nc2ccon2)C3)c1 (relative stereo) [Example 25, N-(isoxazol-3-yl)-5-(3-methoxyphenyl)-8-(((trans)-2-(3-methyl-1,2,4-oxadiazol-5-yl)cyclopropanecarboxamido)methyl)-3,4-dihydroisoquinoline-2(1H)-carboxamide]"
4,0.126,"Cc1noc([C@@H]2C[C@H]2C(=O)NCc2ccc(-c3cccc(C(F)(F)F)c3)c3c2CN(C(=O)Nc2ccon2)CC3)n1 (relative stereo) [Example 26, N-(isoxazol-3-yl)-8-(((trans)-2-(3-methyl-1,2,4-oxadiazol-5-yl)cyclopropanecarboxamido)methyl)-5-(3-(trifluoromethyl)phenyl)-3,4-dihydroisoquinoline-2(1H)-carboxamide]"
5,0.0598,"Cc1noc2ccc(-c3ccc(CNC(=O)[C@@H]4C[C@H]4c4ccccc4)c4c3CCN(C(=O)NC(C)(C)C)C4)cc12 (relative stereo) [Example 27, N-(tert-butyl)-5-(3-methylbenzo[d]isoxazol-5-yl)-8-(((trans)-2-phenylcyclopropanecarboxamido)methyl)-3,4-dihydroisoquinoline-2(1H)-carboxamide]"
6,4.64,"CC(C)(C)NC(=O)N1CCc2c(-c3ccc4ncnn4c3)ccc(CNC(=O)[C@@H]3C[C@H]3c3ccccc3)c2C1 (relative stereo) [Example 29, 5-([1,2,4]triazolo[1,5-a]pyridin-6-yl)-N-(tert-butyl)-8-(((trans)-2-phenylcyclopropanecarboxamido)methyl)-3,4-dihydroisoquinoline-2(1H)-carboxamide]"
